According to ChEMBL document CHEMBL1134360, “Thiazole and thiadiazole analogues as a novel class of adenosine receptor antagonists” (J Med Chem, 2001):
pKi: −log10 of the molar value.

Tests used:
Adenosine receptor A3 = target: T1, Adenosine receptor A3 (Homo sapiens, UniProt P0DMS8); assay: Displacement of [125I]AB-MECA from human adenosine A3 receptor expressed in HEK 293 cells; assay type: cell-based, HEK293
T1 sequence (P0DMS8 whole entry): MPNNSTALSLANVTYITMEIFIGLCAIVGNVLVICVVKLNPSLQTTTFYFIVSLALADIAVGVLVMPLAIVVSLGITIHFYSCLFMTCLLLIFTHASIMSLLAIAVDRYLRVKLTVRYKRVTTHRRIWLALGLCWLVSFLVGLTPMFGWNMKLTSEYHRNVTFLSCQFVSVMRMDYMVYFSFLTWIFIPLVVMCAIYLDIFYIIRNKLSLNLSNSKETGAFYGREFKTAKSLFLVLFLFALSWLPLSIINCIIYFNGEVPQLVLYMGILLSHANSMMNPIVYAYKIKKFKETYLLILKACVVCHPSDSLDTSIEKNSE

Adenosine receptor A2a [1] = target: T2, Adenosine receptor A2a (Rattus norvegicus, UniProt P30543); assay: Displacement of [3H]-CGS-21,680 or [3H]ZM-241385 binding in adenosine A2A receptor of rat striatal membrane was determined
T2 sequence (P30543 whole entry): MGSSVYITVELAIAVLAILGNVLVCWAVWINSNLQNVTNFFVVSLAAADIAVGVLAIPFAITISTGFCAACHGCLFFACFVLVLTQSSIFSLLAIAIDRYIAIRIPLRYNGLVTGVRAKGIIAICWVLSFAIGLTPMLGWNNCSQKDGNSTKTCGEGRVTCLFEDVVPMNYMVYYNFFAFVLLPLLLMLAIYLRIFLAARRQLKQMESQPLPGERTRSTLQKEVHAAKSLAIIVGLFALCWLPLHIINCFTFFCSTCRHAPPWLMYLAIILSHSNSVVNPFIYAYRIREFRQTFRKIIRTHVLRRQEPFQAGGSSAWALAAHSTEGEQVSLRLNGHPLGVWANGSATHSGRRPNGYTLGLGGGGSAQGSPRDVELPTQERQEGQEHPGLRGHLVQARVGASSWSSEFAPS

Adenosine receptor A1 = target: T3, Adenosine receptor A1 (Rattus norvegicus, UniProt P25099)
T3 sequence (P25099 whole entry): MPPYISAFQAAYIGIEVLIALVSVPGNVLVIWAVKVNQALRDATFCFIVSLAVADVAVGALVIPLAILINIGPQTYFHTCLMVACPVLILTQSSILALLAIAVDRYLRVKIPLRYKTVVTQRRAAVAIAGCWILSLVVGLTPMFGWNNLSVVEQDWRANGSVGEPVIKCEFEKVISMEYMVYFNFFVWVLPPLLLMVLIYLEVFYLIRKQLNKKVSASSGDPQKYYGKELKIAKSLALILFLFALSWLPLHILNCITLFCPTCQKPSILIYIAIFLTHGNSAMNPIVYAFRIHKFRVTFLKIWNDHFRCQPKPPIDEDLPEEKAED
Description: Displacement of [3H]DPCPX binding to adenosine A1 receptor of rat brain cortical membrane

[2] = target: Adenosine receptor A2a (Rattus norvegicus) (UniProt P30543); assay: Displacement of [3H]CGS-21680 or [3H]ZM-241,385 binding in adenosine A2A receptor of rat striatal membrane at 10 uM
Adenosine receptor A2a (Rattus norvegicus), sequence (P30543 whole entry): as the sequence (P30543 whole entry) above

[3] = target: T4, Adenosine receptor A3 (Homo sapiens) (UniProt P0DMS8); assay: Displacement of [125I]AB-MECA from adenosine A3 receptor expressed in HEK 293 cells at 10 uM; conditions: HEK293
T4 sequence (whole entry): T1 sequence (P0DMS8 whole entry)

[4] = target: T5, Adenosine receptor A1 (Rattus norvegicus) (UniProt P25099); assay: Displacement of [3H]DPCPX binding in adenosine A1 receptor of rat brain cortical membrane at a concentration of 10 uM
T5 sequence (whole entry): T3 sequence (P25099 whole entry)

[5] = target: Adenosine receptor A2a (Rattus norvegicus) (UniProt P30543); assay: Percentage displacement of [3H]-CGS- 21680 binding in adenosine A2A receptor of rat striatal membrane at a concentration of 10 uM
[6] = target: Adenosine receptor A2a (Rattus norvegicus) (UniProt P30543); assay: Displacement of [3H]ZM-241385 binding in adenosine A2A receptor of rat striatal membrane at a concentration of 10 uM
[7] = target: T5, Adenosine receptor A1 (Rattus norvegicus); assay: Percentage displacement of [3H]DPCPX binding in adenosine A1 receptor of rat brain cortical membrane at a concentration of 10 uM
[8] = target: Adenosine receptor A2a (Rattus norvegicus) (UniProt P30543); assay: Percent displacement of [3H]-CGS- 21680 binding in adenosine A2A receptor of rat striatal membrane at a concentration of 10 uM
[9] = target: T5, Adenosine receptor A1 (Rattus norvegicus); conditions: 10 uM
Description: Percent displacement of [3H]DPCPX binding in adenosine A1 receptor of rat brain cortical membrane at a concentration of 10 uM

Adenosine receptor A2a [10] = target: T2, Adenosine receptor A2a; assay: Displacement of [3H]-CGS- 21680 binding in adenosine A2A receptor of rat striatal membrane

Row | Structure (SMILES) | pKi (Adenosine receptor A3) | pKi (Adenosine receptor A1) | Displacement [2] | other results
1 | O=C(O)COc1ccc(C(=O)Nc2nc(-c3ccccc3)ns2)cc1 | 5.92 | 7.00 |  | pKi (Adenosine receptor A2a [1]): 4.82
2 | COc1ccc(C(=O)Nc2cc(-c3ccccc3)[nH]n2)cc1 |  |  | 16% | Displacement [3]: 35%; Displacement [4]: 20%
3 | COc1ccc(C(=O)Nc2nc(-c3ccccc3)cs2)cc1 | 6.17 | 7.12 |  | pKi (Adenosine receptor A2a [1]): 5.72
4 | O=C(Nc1nc(-c2ccccn2)cs1)c1ccc(I)cc1 |  |  | 50% | 
5 | Cc1ccc(C(=O)Nc2nc(-c3ccccn3)cs2)cc1 | 5.49 | 5.80 | 44% | 
6 | O=C(Nc1nc(-c2ccccc2)ns1)C1CCC(O)CC1 (stereo in doubt; 8n) [listing 1 of 2 here] | 5.57 | 7.38 |  | 
7 | O=C(Nc1nc(-c2ccccc2)ns1)C1CCC(O)CC1 (stereo in doubt) [listing 1 of 2 here] |  |  | 37% | 
8 | Cc1ccc(C(=O)Nc2nc(-c3ccccc3)ns2)cc1 | 6.85 | 7.52 | 38.2% | 
9 | O=C(Nc1nc(-c2ccccn2)cc2ccccc12)c1ccccc1 |  |  |  | Displacement [5]: 0%
10 | O=C(Nc1nc(-c2ccccn2)cs1)c1ccccc1 | 5.47 | 5.77 |  | pKi (Adenosine receptor A2a [1]): 5.06
11 | O=C(Nc1nc(-c2ccccc2)ns1)c1ccccc1 | 6.39 | 7.51 |  | pKi (Adenosine receptor A2a [1]): 5.36
12 | O=C(Nc1ccccc1)Nc1nc(-c2ccccc2)cs1 | 5.00 |  |  | Displacement [6]: 19%; Displacement [7]: 37%
13 | COC1CCC(C(=O)Nc2nc(-c3ccccc3)ns2)CC1 (stereo in doubt; 8k) | 5.77 | 7.49 |  | pKi (Adenosine receptor A2a [1]): 5.72
14 | Nc1nc2ccc(Cl)cc2c2nc(-c3ccco3)nn12 [CGS-15943] | 6.85 |  |  | 
15 | COc1ccc(C(=O)Nc2nc(-c3ccccc3)ns2)cc1 | 7.09 | 7.49 |  | pKi (Adenosine receptor A2a [1]): 5.64
16 | O=C(Nc1nc(-c2ccccn2)cs1)c1cccc(Cl)c1 | 5.34 | 5.77 |  | pKi (Adenosine receptor A2a [1]): 5.89
17 | O=C(Nc1nc(-c2ccccc2)cc2ccccc12)c1ccccc1 | 5.92 | 5.92 |  | Displacement [5]: 0%
18 | O=C(Nc1nc(-c2ccccn2)nc2ccccc12)c1ccccc1 |  |  |  | Displacement [5]: 9%; Displacement [7]: 16%
19 | COc1ccc(C(=O)Nc2nc(-c3ccccc3)ns2)cc1C | 6.24 |  | 8% | Displacement [4]: 48%
20 | O=C(Nc1nc(-c2ccccn2)cs1)c1ccc(Cl)c(Cl)c1 | 5.60 | 5.80 | 20% | 
21 | COc1ccc(C(=O)NC2=NN(c3ccccc3)CC2)cc1 |  |  | 19% | Displacement [3]: 41%; Displacement [4]: 26%
22 | COc1ccc(C(=O)Nc2cccc(-c3ccccc3)c2)cc1 | 5.00 |  | 41% | Displacement [4]: 30%
23 | O=C(Nc1nc(-c2ccccn2)cs1)c1ccc(Cl)cc1 |  |  | 30% | 
24 | O=C(Nc1nc(-c2ccccc2)ns1)C1CCC(O)CC1 (stereo in doubt) [listing 2 of 2 here] | 5.72 | 7.70 |  | 

Row | Structure (SMILES) | pKi (Adenosine receptor A3) | pKi (Adenosine receptor A1) | Displacement [2] | other results
25 | O=C(Nc1nc(-c2ccccc2)ns1)c1ccc(I)cc1 | 5.96 |  | 19% | Displacement [4]: 49%
26 | O=C(Nc1nc(-c2ccccc2)ns1)c1ccc(O)cc1 | 6.89 | 8.14 |  | pKi (Adenosine receptor A2a [1]): 6.24
27 | O=C(Nc1nc(-c2ccccc2)ns1)c1ccc(Cl)cc1 | 6.28 | 7.39 | 36% | 
28 | COc1ccc(C(=O)Nc2nc(-c3ccccc3)nc3ccccc23)cc1 | 7.57 | 5.74 |  | Displacement [5]: 44%
29 | O=C(Nc1nc(-c2ccccc2)ns1)C1CCCCC1 | 4.80 | 5.85 | 16% | 
30 | COC(=O)C1=C2C=CN(C)C=C2c2nc(-c3ccccc3)nn2C1 | 6.77 |  |  | 
31 | COc1ccc(NC(=O)Nc2nc(-c3ccccc3)ns2)cc1 | 5.48 |  | 16% | Displacement [4]: 44%
32 | O=C(Nc1ccccc1)Nc1nc(-c2ccccc2)ns1 | 5.40 | 6.00 | 48% | 
33 | O=C(Nc1ccccc1)Nc1nc(-c2ccccn2)cs1 | 5.30 | 6.03 |  | pKi (Adenosine receptor A2a [1]): 6.04
34 | CC(C)Oc1ccc(C(=O)Nc2nc(-c3ccccn3)cs2)cc1 | 5.43 | 5.24 | 44% | 
35 | COc1ccc(C(=O)Nc2nc(-c3ccccn3)cs2)cc1 | 5.74 | 5.49 | 40% | 
36 | O=C(Nc1nc(-c2ccccc2)nc2ccccc12)c1ccccc1 | 6.62 |  |  | Displacement [5]: 17%; Displacement [7]: 34%
37 | COc1ccc(C(=O)Nc2cc(-c3ccccc3)ncn2)cc1 | 6.10 |  | 31% | 
38 | O=C(Nc1nc(-c2ccccc2)ns1)C1CCC(O)CC1 (stereo in doubt; 8n) [listing 2 of 2 here] |  |  | 41% | 
39 | COc1ccccc1NC(=O)Nc1nc(-c2ccccc2)ns1 |  |  | 38% | Displacement [3]: 20%; Displacement [4]: 27%
40 | COc1ccc(C(=O)Nc2cccc(-c3ccccc3)n2)cc1 | 5.06 |  | 16% | Displacement [4]: 46%
41 | COc1ccc(C(=O)Nc2nc(-c3ccccn3)cc3ccccc23)cc1 |  | < 5.00 |  | Displacement [8]: 19%; Displacement [9]: 37%; pKi (Adenosine receptor A2a [10]): < 5.00
42 | O=C(Nc1nc(-c2ccccc2)ns1)c1ccc([N+](=O)[O-])cc1 |  |  | 5% | Displacement [3]: 28%; Displacement [4]: 34%
43 | O=C(Nc1nc(-c2ccccn2)cs1)c1ccc([N+](=O)[O-])cc1 |  |  | 29% | 
44 | COc1ccc(C(=O)Nc2nc(-c3ccccc3)cc3ccccc23)cc1 | 7.10 | 5.52 |  | Displacement [5]: 35%
45 | COC1CCC(C(=O)Nc2nc(-c3ccccc3)ns2)CC1 (stereo in doubt; 8l) | 5.28 | 6.96 |  | pKi (Adenosine receptor A2a [1]): 5.70
46 | O=C(Nc1nc(-c2ccccn2)cs1)C1CCCC1 | 5.68 | 6.04 |  | pKi (Adenosine receptor A2a [1]): 5.89
47 | COc1ccccc1NC(=O)Nc1nc(-c2cccnc2)nc2ccccc12 | 8.40 | < 5.00 |  | pKi (Adenosine receptor A2a [10]): < 5.00
48 | COc1ccc(NC(=O)Nc2nc(-c3ccccn3)cs2)cc1 | 3.83 |  | 11% | Displacement [4]: 4%
